Values of other authors, collected in patent publication US12596089B2, “Devices, systems, and methods for antimicrobial susceptibility testing” (Avails Medical, Inc., priority 2022, dated 2026).

Experiments:
[1] = test system: CDC-650 strain of E. coli; details: stated as known
[2] = test system: CDC-846 strain of E. coli; details: stated as known

CO/N=C(\C(=O)N[C@@H]1C(=O)N2C(C(=O)O)=C(CSc3nc(=O)c(=O)[nH]n3C)CS[C@H]12)c1csc(N)n1 [ceftriaxone]
susceptibility of the bacteria to the anti-infective [1]: highly susceptible
susceptibility of the bacteria to the anti-infective [2]: resistant
